Measured values reported in publication PMC11503492, “Activity-Based DNA-Encoded Library Screening for Selective Inhibitors of Eukaryotic Translation” (ACS Central Science, 2024).

Columns and labels:
HeLa-derived IVTT = assay: HeLa lysate IVTT microplate activity assay; format: biochemical, human; settings: dose-response
Excerpt: 421 region sequences were matched to an alpha numeric DNA region identifier (11xx, 22xx,
422 13xx, 24xx, 15xx, 26xx, respectively), while allowing a 1-bp mutation per encoding region.
423 No insertions or deletions were tolerated.
424 match a known encoding region identifier at all six encoding positions (2) contained a
425 single point mutation in more than 4 of the DNA encoding regions (3) contained a UMI
427 presented in the library or positive control designs or (5) contained a minimum Phred
428 quality score less than 20. A sum of UMI counts for all remaining unique combinations
429 of encoding region identifiers was then determined using a UMI aggregation algorithm;
430 1 bp mutations were considered the same UMI. Encoding region identifiers were then
431 converted to library BB identifiers per the library design with an associated UMI count.
432 Any encoding region/ bead-specific barcode combinations with a UMI count below a
433 manually determined threshold (10) were discarded. The remaining ”valid beads” were […]
440 progress was immediately monitored (λex = 480 nm, λem = 530 nm, 27 °C, 2 h). […]
441 tive activity was calculated using the slope of fluorescence increase over time (at 15–30 […]
449 immediately monitored (λex = 480 nm, λem = 530 nm, 27 °C, 2 h). […]
450 culated using the slope of fluorescence increase over time (15–30 min post reaction initia- […]

[1] = system: PCSK9[1:33]-GFP translation from mRNA; assay: IVTT activity assay of PCSK9[1:33]-GFP initiated with RNA template; format: biochemical
Procedure: Figure S10. Activity of compounds 8 and 9 on transcription. (A) Screening hits 8 and 9 were analyzed in dose-response IVTT activity assays of PCSK9[1:33]-GFP initiated with DNA (black) and RNA (gray) template. (B) Products of PCSK9[1:33]-GFP T7 transcription reactions incubated with DMSO, screening hits 8 and 9, or PF846 were visualized on a 1.5% agarose gel
(1 picture or pasted object on this page, not shown here)

[2] = system: PCSK9[1:33]-GFP translation; assay: Wheat germ lysate (WG) IVTT microplate activity assay, PCSK9[1:33]-GFP template; format: biochemical; settings: for inhibition of PCSK9[1:33]-GFP translation (in words) / IC50: WG IVTT; for IC50: PCSK9[1:33]-GFP template, triplicate, ± standard deviation of the mean
Excerpt: A commercially available wheat germ lysate (WG) IVTT system was employed to assay translation inhibition. Translation activity was detected via a GFP reporter, and the assay was miniaturized to picoliter-scale microfluidic droplets (Figure 1A,B). […] PCSK9 and RPL27 were truncated to the first 33 and 32 amino acids, respectively (PCSK9[1:33] and RPL27[1:32]). The sequences contain distinct PF846 stall sites and were both fused to a GFP reporter. The GFP reporter and a frameshift mutant of PCSK9[1:33] (PCSK9-FS[1:33]), which mutates the nascent chain sequence while maintaining a nearly identical mRNA sequence, were included as negative controls.[13] […] Sequence sensitivity was further confirmed by an N-terminal deletion series of PCSK9[1:33]-GFP; deletion of N-terminal residues increasingly ablated PCSK9[1:33]-GFP translation sensitivity to PF846 (Figure 1D). The WG IVTT assay was miniaturized using a previously described microfluidic circuit modified for longer incubation times (Figure S1)[27] using PF846 as a positive control compound, and assay statistical quality was calculated (Z′=0.7) (Figure 1E). To confirm detection of translation inhibition from library beads, hygromycin B, a nonselective aminoglycoside translation inhibitor, was coupled to beads displaying a photocleavable linker (PC-HygB). UV irradiation releases hygromycin from the bead, allowing it to interact with the WG IVTT assay in the droplet. PC-HygB bead photocleavage supernatant inhibited PCSK9[1:33]-GFP translation both in a microplate assay and in microfluidic droplets (Figure 1F,G, S2). Assay statistical quality using PC-HygB positive control beads was similarly calculated (Z′ = 0.75, Figure 1H). […]
436 Microplate IVTT Assays
437 Wheat germ lysate IVTT plate assays were prepared as 5 µL reactions. Wheat germ lysate
438 (3 µL) was added to test compound or vehicle control (1 µL) in a 384-well black microplate
439 and the reaction was incubated (10 min, RT). Template (1 µL) was added and reaction
440 progress was immediately monitored (λex = 480 nm, λem = 530 nm, 27 °C, 2 h). Rela-
441 tive activity was calculated using the slope of fluorescence increase over time (at 15–30
442 min post reaction initiation) for compound samples relative to that of the DMSO vehicle
443 control. […]

## Cc1cccc2ccnc(N(C(=O)[C@H]3CCCN(C(=O)c4cccc5c(C#N)c[nH]c45)C3)[C@@H]3CCCNC3)c12 [Compound 8]
HeLa-derived IVTT
  activity in HeLa-derived (human) IVTT (in words): active
[1]
  activity when translation initiated from mRNA rather than plasmid DNA (in words): active
[2]
  inhibition of PCSK9[1:33]-GFP translation (in words): moderately inhibited
  IC50: 1.3 ± 0.2 µM

## Cc1cccc2ccnc(N(C(=O)C3CCN(C(=O)c4cccc5c(C#N)c[nH]c45)CC3)[C@@H]3CCCNC3)c12 [Compound 9]
HeLa-derived IVTT
  activity in HeLa-derived (human) IVTT (in words): active
[1]
  activity when translation initiated from mRNA rather than plasmid DNA (in words): inactive
[2]
  inhibition of PCSK9[1:33]-GFP translation (in words): similarly active on both templates
  IC50: 19.6 ± 0.2 µM
[2]; all IVTT reporters tested
  inhibition of translation of all reporters (in words): universally and completely inhibited
